Experimental data: PubChem BioAssay AID1918999 (Molecular Pharmacology Branch, DTP, NCI, 2023)

System: 556581-035-R-J1-PDC complex spheroid growth
Assay: Anticancer human tumor 556581-035-R-J1-PDC patient-derived ovarian carcinoma cell line growth inhibition [AhR]
Conditions: for IC50: curve of first compound; for viability, T/C: stronger effect = lower value
Summary of the method: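 Agents were dosed in half-log steps down from roughly clinical Cmax, or from 10 microM where Cmax was unknown, alone and with AhR antagonists. Read-out: percent test/control growth of tumor spheroids containing HUVEC and MSC stromal cells.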

[1] = second compound 0.1 µM, first compound 0.000949 µM
[2] = second compound 0.1 µM, first compound 0.003 µM
[3] = second compound 0.1 µM, first compound 0.00949 µM
[4] = second compound 0.1 µM, first compound 0.03 µM
[5] = second compound 0.1 µM, first compound 0.0949 µM
[6] = second compound 0.1 µM, first compound 0.3 µM
[7] = second compound 0.316 µM, first compound 0.000949 µM
[8] = second compound 0.316 µM, first compound 0.003 µM
[9] = second compound 0.316 µM, first compound 0.00949 µM
[10] = second compound 0.316 µM, first compound 0.03 µM
[11] = second compound 0.316 µM, first compound 0.0949 µM
[12] = second compound 0.316 µM, first compound 0.3 µM
[13] = second compound 1 µM, first compound 0.000949 µM
[14] = second compound 1 µM, first compound 0.003 µM
[15] = second compound 1 µM, first compound 0.00949 µM
[16] = second compound 1 µM, first compound 0.03 µM
[17] = second compound 1 µM, first compound 0.0949 µM
[18] = second compound 1 µM, first compound 0.3 µM
[19] = second compound 3.16 µM, first compound 0.000949 µM
[20] = second compound 3.16 µM, first compound 0.003 µM
[21] = second compound 3.16 µM, first compound 0.00949 µM
[22] = second compound 3.16 µM, first compound 0.03 µM
[23] = second compound 3.16 µM, first compound 0.0949 µM
[24] = second compound 3.16 µM, first compound 0.3 µM
[25] = second compound 10 µM, first compound 0.000949 µM
[26] = second compound 10 µM, first compound 0.003 µM
[27] = second compound 10 µM, first compound 0.00949 µM
[28] = second compound 10 µM, first compound 0.03 µM
[29] = second compound 10 µM, first compound 0.0949 µM
[30] = second compound 10 µM, first compound 0.3 µM
[31] = second compound 0.1 µM, first compound 0.0316 µM
[32] = second compound 0.1 µM, first compound 0.1 µM
[33] = second compound 0.1 µM, first compound 0.316 µM
[34] = second compound 0.1 µM, first compound 1 µM
[35] = second compound 0.1 µM, first compound 3.16 µM
[36] = second compound 0.1 µM, first compound 10 µM
[37] = second compound 0.316 µM, first compound 0.0316 µM
[38] = second compound 0.316 µM, first compound 0.1 µM
[39] = second compound 0.316 µM, first compound 0.316 µM
[40] = second compound 0.316 µM, first compound 1 µM
[41] = second compound 0.316 µM, first compound 3.16 µM
[42] = second compound 0.316 µM, first compound 10 µM
[43] = second compound 1 µM, first compound 0.0316 µM
[44] = second compound 1 µM, first compound 0.1 µM
[45] = second compound 1 µM, first compound 0.316 µM
[46] = second compound 1 µM, first compound 1 µM
[47] = second compound 1 µM, first compound 3.16 µM
[48] = second compound 1 µM, first compound 10 µM
[49] = second compound 3.16 µM, first compound 0.0316 µM
[50] = second compound 3.16 µM, first compound 0.1 µM
[51] = second compound 3.16 µM, first compound 0.316 µM
[52] = second compound 3.16 µM, first compound 1 µM
[53] = second compound 3.16 µM, first compound 3.16 µM
[54] = second compound 3.16 µM, first compound 10 µM
[55] = second compound 10 µM, first compound 0.0316 µM
[56] = second compound 10 µM, first compound 0.1 µM
[57] = second compound 10 µM, first compound 0.316 µM
[58] = second compound 10 µM, first compound 1 µM
[59] = second compound 10 µM, first compound 3.16 µM
[60] = second compound 10 µM, first compound 10 µM
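Throughout, for viability, T/C: compound exposure lasted 7 days; 100% = DMSO vehicle control growth.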

CC(C)CC(NC(=O)C(Cc1ccccc1)NC(=O)c1cnccn1)B(O)O (stereo not given) + Cc1cncc(-c2nc(NCCc3c[nH]c4ccccc34)c3ncn(C(C)C)c3n2)c1
IC50 (second compound 0.1 µM): 5.84 nM | IC50 (second compound 0.316 µM): 5.98 nM | IC50 (second compound 1 µM): 6.08 nM | IC50 (second compound 3.16 µM): 5.93 nM | IC50 (second compound 10 µM): 5.16 nM | viability, T/C [1]: 96.7% | viability, T/C [2]: 103% | viability, T/C [3]: 13.8% | viability, T/C [4]: 0.14% | viability, T/C [5]: 0.08% | viability, T/C [6]: 0.23% | viability, T/C [7]: 101% | viability, T/C [8]: 113% | viability, T/C [9]: 12% | viability, T/C [10]: 1.1% | viability, T/C [11]: 0.12% | viability, T/C [12]: 1.12% | viability, T/C [13]: 106% | viability, T/C [14]: 110% | viability, T/C [15]: 13.4% | viability, T/C [16]: 0.14% | viability, T/C [17]: 0.09% | viability, T/C [18]: 0.67% | viability, T/C [19]: 103% | viability, T/C [20]: 105% | viability, T/C [21]: 12.7% | viability, T/C [22]: 1.05% | viability, T/C [23]: 0.7% | viability, T/C [24]: 2.06% | viability, T/C [25]: 89.9% | viability, T/C [26]: 87.8% | viability, T/C [27]: 7.45% | viability, T/C [28]: 0.99% | viability, T/C [29]: 0.21% | viability, T/C [30]: 1.28%

CCc1c2c(nc3ccc(O)cc13)-c1cc3c(c(=O)n1C2)COC(=O)[C@]3(O)CC + Cc1cncc(-c2nc(NCCc3c[nH]c4ccccc34)c3ncn(C(C)C)c3n2)c1
IC50 (second compound 0.1 µM): 14.8 nM | IC50 (second compound 0.316 µM): 15.4 nM | IC50 (second compound 1 µM): 13.7 nM | IC50 (second compound 3.16 µM): 18.5 nM | IC50 (second compound 10 µM): 16.8 nM | viability, T/C [1]: 91.8% | viability, T/C [2]: 86.4% | viability, T/C [3]: 56.4% | viability, T/C [4]: 36% | viability, T/C [5]: 17.5% | viability, T/C [6]: 10.5% | viability, T/C [7]: 97.3% | viability, T/C [8]: 89.2% | viability, T/C [9]: 55.7% | viability, T/C [10]: 40% | viability, T/C [11]: 14.4% | viability, T/C [12]: 10.8% | viability, T/C [13]: 101% | viability, T/C [14]: 90.2% | viability, T/C [15]: 60.6% | viability, T/C [16]: 27.1% | viability, T/C [17]: 16.2% | viability, T/C [18]: 9.89% | viability, T/C [19]: 84.2% | viability, T/C [20]: 90.8% | viability, T/C [21]: 65.4% | viability, T/C [22]: 38.8% | viability, T/C [23]: 14.6% | viability, T/C [24]: 13.8% | viability, T/C [25]: 81.5% | viability, T/C [26]: 73.8% | viability, T/C [27]: 63% | viability, T/C [28]: 37.7% | viability, T/C [29]: 17.2% | viability, T/C [30]: 9.08%

Nc1ccccc1NC(=O)c1ccc(CNC(=O)OCc2cccnc2)cc1 + Cc1cncc(-c2nc(NCCc3c[nH]c4ccccc34)c3ncn(C(C)C)c3n2)c1
IC50 (second compound 0.1 µM): 2770 nM | IC50 (second compound 0.316 µM): 2420 nM | IC50 (second compound 1 µM): 2530 nM | IC50 (second compound 3.16 µM): 1940 nM | IC50 (second compound 10 µM): 791 nM | viability, T/C [31]: 106% | viability, T/C [32]: 100% | viability, T/C [33]: 93.7% | viability, T/C [34]: 76.3% | viability, T/C [35]: 46.2% | viability, T/C [36]: 19.3% | viability, T/C [37]: 107% | viability, T/C [38]: 121% | viability, T/C [39]: 102% | viability, T/C [40]: 78.5% | viability, T/C [41]: 42% | viability, T/C [42]: 19.7% | viability, T/C [43]: 108% | viability, T/C [44]: 107% | viability, T/C [45]: 89.5% | viability, T/C [46]: 77% | viability, T/C [47]: 42.2% | viability, T/C [48]: 22.2% | viability, T/C [49]: 93% | viability, T/C [50]: 99.2% | viability, T/C [51]: 98.7% | viability, T/C [52]: 67% | viability, T/C [53]: 37.6% | viability, T/C [54]: 18.1% | viability, T/C [55]: 79% | viability, T/C [56]: 87% | viability, T/C [57]: 64.5% | viability, T/C [58]: 47.1% | viability, T/C [59]: 22.8% | viability, T/C [60]: 14.7%

O=C(c1cc(Cc2n[nH]c(=O)c3ccccc23)ccc1F)N1CCN(C(=O)C2CC2)CC1 + Cc1cncc(-c2nc(NCCc3c[nH]c4ccccc34)c3ncn(C(C)C)c3n2)c1
IC50 (second compound 0.1 µM): > 10000 nM | IC50 (second compound 0.316 µM): > 10000 nM | IC50 (second compound 1 µM): > 10000 nM | IC50 (second compound 3.16 µM): > 10000 nM | IC50 (second compound 10 µM): > 10000 nM | viability, T/C [31]: 98.4% | viability, T/C [32]: 107% | viability, T/C [33]: 101% | viability, T/C [34]: 89.6% | viability, T/C [35]: 94.6% | viability, T/C [36]: 82% | viability, T/C [37]: 112% | viability, T/C [38]: 105% | viability, T/C [39]: 104% | viability, T/C [40]: 91.2% | viability, T/C [41]: 91.9% | viability, T/C [42]: 78.9% | viability, T/C [43]: 108% | viability, T/C [44]: 102% | viability, T/C [45]: 99.3% | viability, T/C [46]: 95.9% | viability, T/C [47]: 98.8% | viability, T/C [48]: 90.2% | viability, T/C [49]: 104% | viability, T/C [50]: 108% | viability, T/C [51]: 95.3% | viability, T/C [52]: 89.2% | viability, T/C [53]: 94.3% | viability, T/C [54]: 81.3% | viability, T/C [55]: 90% | viability, T/C [56]: 95.4% | viability, T/C [57]: 95.2% | viability, T/C [58]: 86.2% | viability, T/C [59]: 92.7% | viability, T/C [60]: 83.2%
